One assay deals with Rattus norvegicus. Briefly: Compound was evaluated in vivo for its potency to antagonise serotonin 5-HT-inducedbradycardia in the anesthetized rat. The assay is classed as functional.
Assay [1] has as its target T1, Serotonin 3 (5-HT3) receptor (Rattus norvegicus, UniProt P35563+Q9JJ16).
T1 sequence (P35563 whole entry): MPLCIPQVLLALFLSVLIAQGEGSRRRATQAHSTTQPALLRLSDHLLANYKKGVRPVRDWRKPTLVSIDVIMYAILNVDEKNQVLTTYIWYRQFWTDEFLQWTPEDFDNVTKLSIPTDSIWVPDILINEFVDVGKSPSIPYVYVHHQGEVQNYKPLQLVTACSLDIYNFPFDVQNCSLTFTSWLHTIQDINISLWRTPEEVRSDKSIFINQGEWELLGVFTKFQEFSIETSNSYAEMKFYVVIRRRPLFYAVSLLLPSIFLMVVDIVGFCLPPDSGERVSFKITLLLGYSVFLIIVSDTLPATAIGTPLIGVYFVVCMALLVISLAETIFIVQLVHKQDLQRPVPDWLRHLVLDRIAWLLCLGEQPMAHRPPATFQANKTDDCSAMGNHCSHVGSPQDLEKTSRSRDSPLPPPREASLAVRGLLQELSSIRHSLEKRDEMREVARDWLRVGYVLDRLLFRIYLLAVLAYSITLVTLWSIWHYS
T1 sequence (Q9JJ16 whole entry): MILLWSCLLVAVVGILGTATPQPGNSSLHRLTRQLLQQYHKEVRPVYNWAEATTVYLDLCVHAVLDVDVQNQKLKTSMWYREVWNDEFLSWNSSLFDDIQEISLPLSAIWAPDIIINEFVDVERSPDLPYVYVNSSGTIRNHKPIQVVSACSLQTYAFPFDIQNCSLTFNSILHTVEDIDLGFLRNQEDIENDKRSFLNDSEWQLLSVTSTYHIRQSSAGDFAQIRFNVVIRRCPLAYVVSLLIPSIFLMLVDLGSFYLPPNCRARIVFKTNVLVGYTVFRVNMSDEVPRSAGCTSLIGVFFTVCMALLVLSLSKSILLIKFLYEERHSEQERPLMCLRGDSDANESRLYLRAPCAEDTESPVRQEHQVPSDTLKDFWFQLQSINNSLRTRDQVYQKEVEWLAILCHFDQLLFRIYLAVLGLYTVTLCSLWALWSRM
Description: Binding affinity was evaluated in vitro by displacement of [3H]zacopride radioligand from 5-hydroxytryptamine 3 receptor. In kind it is protein-complex assay. A general note: Loss of bound radioactivity is the signal in a displacement assay; it reports binding, not function.

On to `c1ccc2nc(OC3CN4CCC3CC4)ccc2c1` (stereo not drawn), for which the Dose with Rattus norvegicus came out at 3 mg/kg. The IC50 – broadly, the concentration needed to halve the response being measured – in assay [1] was 48 nM. The corresponding values for `CN1C2CCC1CC(Oc1nc3ccccc3s1)C2` (stereo not drawn) are 0.1 mg/kg and 6.9 nM. In the assay with Rattus norvegicus, `CN1C2CCC1CC(Oc1ccc3ccccc3n1)C2` (stereo not drawn) returned a Dose of 10 mg/kg. The same compound displayed an IC50 in assay [1] of 39.6 nM.

Turning to `CN1[C@@H]2CC[C@H]1C[C@@H](OC(=O)c1cc(Cl)cc(Cl)c1)C2` [BEMESETRON], the Dose with Rattus norvegicus worked out at 0.1 mg/kg. The IC50 in assay [1] was determined as 42.6 nM. `Cc1nccn1CC1CCc2c(c3ccccc3n2C)C1=O` (stereo not drawn) [ONDANSETRON] returned a Dose in the assay with Rattus norvegicus of 0.01 mg/kg. As for `CN1[C@@H]2CC[C@H]1C[C@@H](OC(=O)c1c[nH]c3ccccc13)C2` [TROPISETRON], the Dose with Rattus norvegicus came out at 0.01 mg/kg. The compound further yielded an IC50 in assay [1] of 2.3 nM.

Regarding `COc1cc(N)c(Cl)cc1C(=O)NC1CN2CCC1CC2` (stereo not drawn) [ZACOPRIDE], the Dose with Rattus norvegicus was 0.01 mg/kg. Further, the IC50 in assay [1] was 2.2 nM.

(Values after ChEMBL document CHEMBL1126403, “Azaheteroaromatic ethers as carbonyl bioisosteres. Synthesis and evaluation of a novel class of 5-HT3 receptor antagonists” (Bioorg Med Chem Lett, 1992).)
